Measurements published in US20220154404A1, “Active Materials, Surfaces, Surface Treatments And Methods For Packaging Materials, Boxes, And Containers Using Photosensitizers For Pathogen Reduction” (Mi2 Holdings LLC, priority 2020, published 2022).
Read-outs that look alike come from different tables or passages of the source.

Assays:
[1] = cited from earlier work; for Epsilon: ideal solvent
[2] = ideal solvent; cited from earlier work
[3] = Absorption characteristics of photosensitizers with peak absorptions in visible light (Lambda Max, Epsilon); assay type: physicochemical; conditions: determined in water
Excerpt: Examples of photosensitizers having peak absorptions in visible light and their absorption characteristics is: […]

[4] = cited from earlier work

Compound | Lambda Max ([1]; first or only peak) | Epsilon ([1]; first or only peak) | Singlet Oxygen QY [2] | Epsilon ([3]; first or only peak) | Lambda Max ([1]; second peak (after the slash)) | Epsilon ([3]; second peak (after the slash)) | Epsilon ([1]; second peak (after the slash)) | water solubility [4]
Verteporfin | 435 | ~70,000 | – | – | – | – | – | –
CN(C)c1ccc2nc3ccc(=[N+](C)C)cc-3sc2c1 [Methylene Blue, methylene blue (CAS #61-73-4)] | 665 | – | 0.52 | 48,000 | – | – | – | –
O=C([O-])c1ccccc1-c1c2cc(Br)c(=O)c(Br)c-2oc2c(Br)c([O-])c(Br)cc12.[Na+].[Na+] [Eosin Y] | 525 | 112,000 | – | – | – | – | – | –
C=Cc1c(C)c2cc3nc(c(CC(=O)O)c4[nH]c(cc5nc(cc1[nH]2)C(C)=C5CC)c(C)c4C(=O)O)[C@@H](CCC(=O)O)[C@@H]3C [Chlorin e6, chlorin e6] | 400 | – | 0.65 | 150,000 | 650 | 30,000 | – | –
O.O=C([O-])c1ccccc1-c1c2cc(I)c(=O)c(I)c-2oc2c(I)c([O-])c(I)cc12.[Na+].[Na+] [Erythrosin B] | 530 | 82,000 | 0.63 | – | – | – | – | –
CCNc1cc2[s+]c3cc(NCC)c(C)cc3nc2cc1C.[Cl-] [New MB] | 630 | – | – | 64,000 | – | – | – | –
C=Cc1c(C)c2cc3nc(c(CC(=O)N[C@@H](CC(=O)O)C(=O)O)c4[nH]c(cc5nc(cc1[nH]2)C(C)=C5CC)c(C)c4C(=O)O)[C@@H](CCC(=O)O)[C@@H]3C [Talaporfin (LS11, MACE, NPs6), Talaporfin] | 400 | 180,000 | 0.77 | – | 654 | – | 40,000 | –
IRDye 700DX HHS Ester [IR700] | – | – | – | – | – | – | – | good solubility
O=C([O-])c1c(Cl)c(Cl)c(Cl)c(Cl)c1-c1c2cc(I)c(=O)c(I)c-2oc2c(I)c([O-])c(I)cc12.[Na+].[Na+] [Rose Bengal, Rose Bengal (CAS #632-69-9)] | 562 | 90,000 | 0.76 | – | – | – | – | –
